Source: ChEMBL document CHEMBL1126544, “Synthesis and biological evaluation of MC 1357, a new 20-epi-23-oxa-1,25-dihydroxy-vitamin D3 analogue with potent non-classical effects” (Bioorg Med Chem Lett, 1993)

Key:
Rattus norvegicus = assay: Compound was evaluated for calciuric effect (urinary calcium excretion in rats) at a dose of 0.5 ug/kg/day was administered orally for 7 days: Calcium excretion in control rats receiving vehicle alone of 20 umol/day.; type: functional, Urine
U-937 [1] = assay: Concentration to induce cell differentiation in U 937 cells; type: functional, cell-based; conditions: Homo sapiens
T-cell = assay: Concentration to inhibit T-cell activation in Murine MLR; type: functional, cell-based; conditions: Mus musculus
U-937 [2] = assay: Concentration to inhibit cell proliferation in U 937 cells; type: functional, cell-based; conditions: Homo sapiens

IC50 (T-cell) [nM]	IC50 (U-937 [2]) [nM]	Structure (SMILES)	Ca2+ excretion (Rattus norvegicus) [µmol/day]	Concentration (U-937 [1]) [nM]
0.05		C=C1/C(=C\C=C2/CCC[C@]3(C)[C@@H]([C@H](C)CCCC(C)(C)O)CC[C@@H]23)C[C@@H](O)C[C@@H]1O [CALCITRIOL]	83	2
0.0006	0.01	C=C1/C(=C\C=C2/CCC[C@]3(C)[C@@H]([C@@H](C)COCCCC(C)(C)O)CC[C@@H]23)C[C@@H](O)C[C@@H]1O	49	0.001
